Results from US11932634B2 (Gilead Sciences, Inc., priority 2021, dated 2024).

How the values were obtained:
[1] = biological target: T1, human DGKα (Homo sapiens, UniProt P23743); experiment: DGKα Biochemical Activity Assay (ADP-Glo);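 also: recombinant enzyme converting diacylglycerol in lipid micelles with ATP, ADP formed detected by luminescence, IC50 from a four-parameter nonlinear fit, geometric mean across experiments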
T1 construct: purchased Carna Biosciences'; inferred from the same paragraph's 'obtained from Carna Biosciences')
T1 sequence (P23743 whole entry): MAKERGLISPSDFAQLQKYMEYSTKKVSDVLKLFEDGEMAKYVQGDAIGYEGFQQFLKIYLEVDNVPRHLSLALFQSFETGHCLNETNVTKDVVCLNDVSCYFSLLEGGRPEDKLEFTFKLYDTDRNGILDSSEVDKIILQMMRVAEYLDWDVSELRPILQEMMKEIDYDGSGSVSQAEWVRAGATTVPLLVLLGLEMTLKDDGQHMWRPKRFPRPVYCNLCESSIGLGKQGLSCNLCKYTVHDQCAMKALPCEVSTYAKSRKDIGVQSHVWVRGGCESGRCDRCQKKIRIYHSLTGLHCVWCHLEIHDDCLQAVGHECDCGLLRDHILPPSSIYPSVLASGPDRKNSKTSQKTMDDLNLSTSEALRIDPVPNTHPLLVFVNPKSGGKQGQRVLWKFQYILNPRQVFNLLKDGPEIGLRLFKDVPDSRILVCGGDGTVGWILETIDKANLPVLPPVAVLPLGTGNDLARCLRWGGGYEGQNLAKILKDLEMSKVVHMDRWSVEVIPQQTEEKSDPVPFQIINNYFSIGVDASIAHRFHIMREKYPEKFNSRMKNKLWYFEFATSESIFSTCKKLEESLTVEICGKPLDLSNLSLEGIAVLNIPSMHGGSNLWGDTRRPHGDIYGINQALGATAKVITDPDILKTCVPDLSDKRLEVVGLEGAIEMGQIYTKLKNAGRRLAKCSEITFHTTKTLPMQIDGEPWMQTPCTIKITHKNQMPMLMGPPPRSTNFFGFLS

[2] = system: Jurkat NFκB-luciferase cells; experiment: Jurkat NFκB-Luciferase Assay; type: cell-based; details: Homo sapiens; Jurkat NFκB-luciferase cells activated with anti-CD3 antibody (OKT3), 2.5 hrs at 37° C., One-Glo Ex; geometric mean; read-out: DGK NFKb Luciferase EC50;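 also: bioluminescence read-out normalized to DMSO basal activation and to maximum enhancement at 1 µM compound, rising signal indicating stronger T-cell activation through DGKα inhibition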

Structure (SMILES) | IC50 [1] [nM] | EC50 [2] [nM]
CN(c1cccc(-c2ccc(C3CC3)cc2)c1)c1nc(=O)[nH]c2cc(Cl)ccc12 [Example 1, 7-chloro-4-[3-(4-cyclopropylphenyl)-N-methyl-anilino]-1H-quinazolin-2-one] | 166 | 1.36
CN(c1cccc(-c2ccc(C3CC3)cc2)c1)c1nc(=O)n(C)c2cc(Cl)ccc12 [Example 2, 7-chloro-4-[3-(4-cyclopropylphenyl)-N-methyl-anilino]-1-methyl-quinazolin-2-one] | 15.1 | 0.479
CN(c1cccc(C#CC(C)(C)O)c1)c1nc(=O)[nH]c2cc(Cl)ccc12 [Example 3, 7-chloro-4-[3-(3-hydroxy-3-methyl-but-1-ynyl)-N-methyl-anilino]-1H-quinazolin-2-one] | 96.3 | 10.7
CN(c1cccc(C#CC(C)(C)O)c1)c1nc(=O)n(C)c2cc(Cl)ccc12 [Example 4, 7-chloro-4-[3-(3-hydroxy-3-methyl-but-1-ynyl)-N-methyl-anilino]-1-methyl-quinazolin-2-one] | 17 | 4.56
CN(c1cccc(C#CC2(C(F)(F)F)CC2)c1)c1nc(=O)[nH]c2cc(Cl)ccc12 [Example 5, 7-chloro-4-[N-methyl-3-[2-[1-(trifluoromethyl)cyclopropyl]ethynyl]anilino]-1H-quinazolin-2-one] | 53.1 | 1.01
CN(c1cccc(-c2ccc(N3CCCC3)nc2)c1)c1nc(=O)[nH]c2cc(Cl)ccc12 [Example 6, 7-chloro-4-[N-methyl-3-(6-pyrrolidin-1-yl-3-pyridyl)anilino]-1H-quinazolin-2-one] | 84.5 | 2.24
CN(c1cccc(-c2ccc(N3CCCC3)nc2)c1)c1nc(=O)n(C)c2cc(Cl)ccc12 [Example 7, 7-chloro-1-methyl-4-[N-methyl-3-(6-pyrrolidin-1-yl-3-pyridyl)anilino]quinazolin-2-one] | 17.9 | 0.675
CN(c1cccc(C#CC2(C(F)(F)F)CC2)c1)c1nc(=O)n(C)c2cc(Cl)ccc12 [Example 8, 7-chloro-1-methyl-4-[N-methyl-3-[2-[1-(trifluoromethyl)cyclopropyl]ethynyl]anilino]quinazolin-2-one] | 12.4 | 0.489
CN(c1cccc(-c2ccc(N3CCCS3(=O)=O)cc2)c1)c1nc(=O)[nH]c2cc(Cl)ccc12 [Example 9, 7-chloro-4-[3-[4-(1,1-dioxo-1,2-thiazolidin-2-yl)phenyl]-N-methyl-anilino]-1H-quinazolin-2-one] | 33.3 | 5.03
CN(c1cccc(-c2ccc(N3CCCS3(=O)=O)cc2)c1)c1nc(=O)n(C)c2cc(Cl)ccc12 [Example 10, 7-chloro-4-[3-[4-(1,1-dioxo-1,2-thiazolidin-2-yl)phenyl]-N-methyl-anilino]-1-methyl-quinazolin-2-one] | 14 | 1.51
CN(c1cccc(-c2cnc(C3CC3)cn2)c1)c1nc(=O)n(C)c2cc(Cl)ccc12 [Example 11, 7-chloro-4-[3-(5-cyclopropylpyrazin-2-yl)-N-methyl-anilino]-1-methyl-quinazolin-2-one] | 4.02 | 0.709
CN(c1cncc(C#CC2(C(F)(F)F)CC2)n1)c1nc(=O)n(C)c2cc(Cl)ccc12 [Example 12, 7-chloro-1-methyl-4-[methyl-[6-[2-[1-(trifluoromethyl)cyclopropyl]ethynyl]pyrazin-2-yl]amino]quinazolin-2-one] | 2.91 | 1.04
CN(c1cncc(C#CC2(C(F)(F)F)CC2)n1)c1nc(=O)[nH]c2cc(Cl)ccc12 [Example 13, 7-chloro-4-[methyl-[6-[2-[1-(trifluoromethyl)cyclopropyl]ethynyl]pyrazin-2-yl]amino]-1H-quinazolin-2-one] | 20.6 | 1.16
CN(c1cc(F)cc(C#CC2(C(F)(F)F)CC2)c1)c1nc(=O)[nH]c2cc(Cl)ccc12 [Example 14, 7-chloro-4-[3-fluoro-N-methyl-5-[2-[1-(trifluoromethyl)cyclopropyl]ethynyl]anilino]-1H-quinazolin-2-one] | 138 | 0.788
[2H]C([2H])([2H])n1c(=O)nc(N(C)c2cc(F)cc(C#CC3(C(F)(F)F)CC3)c2)c2ccc(Cl)cc21 [Example 15, 7-chloro-4-[3-fluoro-N-methyl-5-[2-[1-(trifluoromethyl)cyclopropyl]ethynyl]anilino]-1-(trideuteriomethyl)quinazolin-2-one] | 27.3 | 0.557
O=c1nc(N(CC(F)F)c2cc(F)cc(C#CC3(C(F)(F)F)CC3)c2)c2c(F)cccc2[nH]1 [Example 16, 4-[N-(2,2-difluoroethyl)-3-fluoro-5-[2-[1-(trifluoromethyl)cyclopropyl]ethynyl]anilino]-5-fluoro-1H-quinazolin-2-one] | 252 | 1.19
O=c1nc(N(CC(F)F)c2cc(F)cc(-c3cnc(C4CC4)cn3)c2)c2c(F)cccc2[nH]1 [Example 17, 4-[3-(5-cyclopropylpyrazin-2-yl)-N-(2,2-difluoroethyl)-5-fluoro-anilino]-5-fluoro-1H-quinazolin-2-one] | 30.1 | 1.23

Structure (SMILES) | IC50 [1] [nM] | EC50 [2] [nM]
O=c1nc(N(CC(F)F)c2cc(F)cc(-c3ccc(C(F)F)nc3)c2)c2c(F)cccc2[nH]1 [Example 18, 4-[N-(2,2-difluoroethyl)-3-[6-(difluoromethyl)-3-pyridyl]-5-fluoro-anilino]-5-fluoro-1H-quinazolin-2-one] | 54.4 | 2.63
O=c1nc(N2CCCc3c(C#CC4(C(F)(F)F)CC4)cccc32)c2c(F)cccc2[nH]1 [Example 19, 5-fluoro-4-[5-[2-[1-(trifluoromethyl)cyclopropyl]ethynyl]-3,4-dihydro-2H-quinolin-1-yl]-1H-quinazolin-2-one] | 62.5 | 0.63
CCn1c(=O)nc(N2CCCc3c(C#CC4(C(F)(F)F)CC4)cccc32)c2c(F)cccc21 [Example 20, 1-ethyl-5-fluoro-4-[5-[2-[1-(trifluoromethyl)cyclopropyl]ethynyl]-3,4-dihydro-2H-quinolin-1-yl]quinazolin-2-one] | 293 | 0.875
[2H]C([2H])([2H])n1c(=O)nc(N2CCCc3c(C#CC4(C(F)(F)F)CC4)cccc32)c2c(F)cccc21 [Example 21, 5-fluoro-1-(trideuteriomethyl)-4-[5-[2-[1-(trifluoromethyl)cyclopropyl]ethynyl]-3,4-dihydro-2H-quinolin-1-yl]quinazolin-2-one] | 11.3 | 0.232
[2H]C([2H])([2H])n1c(=O)nc(N(CC(F)F)c2cc(F)cc(C#CC3(C(F)(F)F)CC3)c2)c2c(F)cccc21 [Example 22, 4-[N-(2,2-difluoroethyl)-3-fluoro-5-[2-[1-(trifluoromethyl)cyclopropyl]ethynyl]anilino]-5-fluoro-1-(trideuteriomethyl)quinazolin-2-one] | 55.6 | 1.61
O=c1nc(N(CC(F)(F)F)c2cccc(C#CC3(C(F)(F)F)CC3)c2)c2ccc(Cl)cc2[nH]1 [Example 24, 7-chloro-4-[N-(2,2,2-trifluoroethyl)-3-[2-[1-(trifluoromethyl)cyclopropyl]ethynyl]anilino]-1H-quinazolin-2-one] | 176 | 2.38
[2H]C([2H])([2H])n1c(=O)nc(N(CC(F)(F)F)c2cccc(C#CC3(C(F)(F)F)CC3)c2)c2ccc(Cl)cc21 [Example 25, 7-chloro-1-(trideuteriomethyl)-4-[N-(2,2,2-trifluoroethyl)-3-[2-[1-(trifluoromethyl)cyclopropyl]ethynyl]anilino]quinazolin-2-one] | 58.8 | 0.405
O=c1nc(N(CC(F)F)c2cc(F)cc(C#CC3(C(F)(F)F)CC3)c2)c2ccc(Cl)cc2[nH]1 [Example 26, 7-chloro-4-[N-(2,2-difluoroethyl)-3-fluoro-5-[2-[1-(trifluoromethyl)cyclopropyl]ethynyl]anilino]-1H-quinazolin-2-one] | 314 | 1.07
O=c1nc(N(CC(F)(F)F)c2cc(F)cc(C#CC3(C(F)(F)F)CC3)c2)c2cc(F)ccc2[nH]1 [Example 27, 6-fluoro-4-[3-fluoro-N-(2,2,2-trifluoroethyl)-5-[2-[1-(trifluoromethyl)cyclopropyl]ethynyl]anilino]-1H-quinazolin-2-one] | 97.3 | 3.27
Cn1c(=O)nc(N(CC(F)F)c2cc(F)cc(C#CC3(C(F)(F)F)CC3)c2)c2ccc(Cl)cc21 [Example 28, 7-chloro-4-[N-(2,2-difluoroethyl)-3-fluoro-5-[2-[1-(trifluoromethyl)cyclopropyl]ethynyl]anilino]-1-methyl-quinazolin-2-one] | 169 | 1.15
O=c1nc(N(CC(F)(F)F)c2cc(F)cc(C#CC3(C(F)(F)F)CC3)c2)c2ccc(Cl)cc2[nH]1 [Example 29, 7-chloro-4-[3-fluoro-N-(2,2,2-trifluoroethyl)-5-[2-[1-(trifluoromethyl)cyclopropyl]ethynyl]anilino]-1H-quinazolin-2-one] | 849 | 1.88
Cn1c(=O)nc(N(CC(F)(F)F)c2cc(F)cc(C#CC3(C(F)(F)F)CC3)c2)c2cc(F)ccc21 [Example 30, 6-fluoro-4-[3-fluoro-N-(2,2,2-trifluoroethyl)-5-[2-[1-(trifluoromethyl)cyclopropyl]ethynyl]anilino]-1-methyl-quinazolin-2-one] | 27.1 | 1.94
O=c1nc(N(CC(F)F)c2ccnc(C#CC3(C(F)(F)F)CC3)c2)c2c(F)c(F)ccc2[nH]1 [Example 78] | – | 2.55
O=c1nc(N2CCOCc3c(C#CC4(C(F)(F)F)CC4)cccc32)c2c(F)cccc2[nH]1 [Example 90] | – | 0.442
[2H]C([2H])([2H])n1c(=O)nc(N2CCOCc3c(C#CC4(C(F)(F)F)CC4)cccc32)c2c(F)c(F)ccc21 [Example 96] | – | 0.559
O=c1nc(N2CCCCc3c(C#CC4(C(F)(F)F)CC4)cncc32)c2c(F)cccc2[nH]1 [Example 153] | – | 1.62
CC1(C#Cc2cccc3c2COCCN3c2nc(=O)[nH]c3cccc(F)c23)CC1 [Example 154] | – | 0.783
